Data on 16 molecules can be found in patent US12098148B2, “Therapeutic compounds” (C4X Discovery Limited, priority 2018, dated 2024).

Structures are written as SMILES.

A word on the EC50: it is the concentration at which the effect is half-maximal. The IC50 is the concentration needed to halve the response being measured. Low readings indicate higher potency, high ones lower potency.

Test [1] deals with NQO1 mRNA in BEAS-2B cells. Nature of the test: Beas2B NQO1 mRNA cell based assay. Also on record: species or system human. Particulars: Homo sapiens, BEAS-2B, 24 h, 24 h compound treatment, increase in NQO1 mRNA vs vehicle (0.1% DMSO), read-out: EC50. In short, it runs like this: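 BEAS-2B human bronchial epithelial cells exposed to compound for 24 h at 37 °C, 5% CO2. NQO1 mRNA measured by one-step TaqMan RT-qPCR on unpurified lysates, normalized to β-actin; relative expression by ΔΔCT method.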

Test [2] addresses human KEAP1 (N-term, residues 321-609) (Homo sapiens, UniProt Q14145). Briefly: biochemical.
Description: Biological Assays KEAP1 Kelch Fluorescence Polarization (FP) Assay Method
Inhibition of the Kelch domain-NRF2 interaction was determined using a fluorescence polarization-based competition assay in a black 384-well microplate. Compounds were tested at a starting concentration of 10 μM serially diluted 1:3 to generate a 12-point dose response curve on the Biomek FX robot.
After 1 h at room temperature, fluorescence polarization (excitation 470 nm/emission 530 nm) was measured using an Envision plate reader. IC50 values were determined by fitting the data to a four parameter logistic fit using XLfit or XE Runner within ActivityBase.
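For IC50 in this document: fluorescence polarization competition assay of Kelch domain binding to NRF2, 12-point 1:3 dilution series from 10 µM, read after 1 h at room temperature, floor 10 nM.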

human KEAP1 (N-term, residues 321-609), sequence (Q14145 321-609): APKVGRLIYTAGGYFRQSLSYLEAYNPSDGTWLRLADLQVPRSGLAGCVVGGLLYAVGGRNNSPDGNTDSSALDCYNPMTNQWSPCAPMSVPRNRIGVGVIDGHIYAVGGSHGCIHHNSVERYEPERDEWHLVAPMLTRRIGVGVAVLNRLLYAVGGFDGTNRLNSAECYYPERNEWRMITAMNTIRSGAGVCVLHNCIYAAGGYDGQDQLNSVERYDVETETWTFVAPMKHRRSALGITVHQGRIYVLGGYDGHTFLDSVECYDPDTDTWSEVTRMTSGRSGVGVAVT

`CC(C)n1cc(COc2ccc(C#N)c3c2[C@@H](CN2Cc4ccccc4C2=O)N(C(=O)[C@@H]2CCCC[C@@H]2C(=O)O)CC3)nn1` [Example 60, (1S,2R)-2-((S)-5-cyano-8-((1-isopropyl-1H-1,2,3-triazol-4-yl)methoxy)-1-((1-oxoisoindolin-2-yl)methyl)-1,2,3,4-tetrahydroisoquinoline-2-carbonyl)cyclohexane-1-carboxylic acid]: the half-maximal effective concentration (EC50) in test [1] is 2.8 nM. In addition, the IC50 in test [2] was 96 nM.
The like results for `COc1ccc(OCc2cn(C(C)C)nn2)c2c1CCN(C(=O)[C@@H]1CCCC[C@@H]1C(=O)O)[C@@H]2CN1Cc2ccccc2C1=O` [Example 61, (1S,2R)-2-((S)-8-((1-isopropyl-1H-1,2,3-triazol-4-yl)methoxy)-5-methoxy-1-((1-oxoisoindolin-2-yl)methyl)-1,2,3,4-tetrahydroisoquinoline-2-carbonyl)cyclohexane-1-carboxylic acid] were, in that order, 63 nM and 5.6 nM.
On to `CC(C)n1cc(COc2ccc(C(F)(F)F)c3c2[C@@H](CN2Cc4ccccc4C2=O)N(C(=O)[C@@H]2CCCC[C@@H]2C(=O)O)CC3)nn1` [Example 62, (1S,2R)-2-((S)-8-((1-isopropyl-1H-1,2,3-triazol-4-yl)methoxy)-1-((1-oxoisoindolin-2-yl)methyl)-5-(trifluoromethyl)-1,2,3,4-tetrahydroisoquinoline-2-carbonyl)cyclohexane-1-carboxylic acid], for which, in test [1], the 50% effective concentration (EC50) turned out to be 120 nM. The same molecule showed a half-maximal inhibitory concentration (IC50) in test [2] of 14 nM.
On the same counts, the results for `O=C(O)[C@H]1CCCC[C@H]1C(=O)N1CCc2c(Br)ccc(O[C@H]3CCN(C(=O)c4cncs4)C3)c2[C@H]1CN1CCCC1=O` [Example 63, (1S,2R)-2-((S)-5-bromo-1-((2-oxopyrrolidin-1-yl)methyl)-8-(((S)-1-(thiazole-5-carbonyl)pyrrolidin-3-yl)oxy)-1,2,3,4-tetrahydroisoquinoline-2-carbonyl)cyclohexane-1-carboxylic acid] are 84 nM and 9.1 nM.
The like results for `O=C(O)[C@H]1CCCC[C@H]1C(=O)N1CCc2c(Br)ccc(OCc3nnc4ccccn34)c2[C@H]1CN1CCCC1=O` [Example 64, (1S,2R)-2-((S)-8-[(1,2,4]triazolo[4,3-a]pyridin-3-ylmethoxy)-5-bromo-1-((2-oxopyrrolidin-1-yl)methyl)-1,2,3,4-tetrahydroisoquinoline-2-carbonyl)cyclohexane-1-carboxylic acid] were, in that order, 23 nM and 6.3 nM.
In the case of `Cc1cnc(COc2ccc(Br)c3c2[C@@H](CN2CCCC2=O)N(C(=O)[C@@H]2CCCC[C@@H]2C(=O)O)CC3)s1` [Example 65, (1S,2R)-2-((S)-5-bromo-8-((5-methylthiazol-2-yl)methoxy)-1-((2-oxopyrrolidin-1-yl)methyl)-1,2,3,4-tetrahydroisoquinoline-2-carbonyl) cyclohexane-1-carboxylic acid], the concentration for a half-maximal effect (EC50) in test [1] was determined as 97 nM. Further, in test [2], the half-inhibitory concentration (IC50) came out at 11 nM.
The like results for `CC(C)c1nc(COc2ccc(Br)c3c2[C@@H](CN2CCCC2=O)N(C(=O)[C@@H]2CCCC[C@@H]2C(=O)O)CC3)no1` [Example 66, (1S,2R)-2-((S)-5-bromo-8-((5-isopropyl-1,2,4-oxadiazol-3-yl)methoxy)-1-((2-oxopyrrolidin-1-yl)methyl)-1,2,3,4-tetrahydroisoquinoline-2-carbonyl) cyclohexane-1-carboxylic acid] were, in that order, 27 nM and 5.7 nM.
On the same counts, the results for `O=C(O)[C@H]1CCCC[C@H]1C(=O)N1CCc2c(Br)ccc(OCc3noc4ccccc34)c2[C@H]1CN1CCCC1=O` [Example 67] are 4.8 nM and 8.5 nM.
The like results for `O=C(O)[C@H]1CCCC[C@H]1C(=O)N1CCc2c(Cl)ccc(OCc3nsc4ccccc34)c2[C@H]1CN1CCCC1=O` [Example 68, (1S,2R)-2-((S)-8-(Benzo[d]isothiazol-3-ylmethoxy)-5-chloro-1-((2-oxopyrrolidin-1-yl)methyl)-1,2,3,4-tetrahydroisoquinoline-2-carbonyl)cyclohexane-1-carboxylic acid] were, in that order, 32 nM and 8.4 nM.
Take `O=C(O)[C@H]1CCCC[C@H]1C(=O)N1CCc2c(Cl)ccc(OCc3ccccn3)c2[C@H]1CN1CCCC1=O` [Example 69, (1S,2R)-2-((S)-5-chloro-1-((2-oxopyrrolidin-1-yl)methyl)-8-(pyridin-2-ylmethoxy)-1,2,3,4-tetrahydroisoquinoline-2-carbonyl) cyclohexane-1-carboxylic acid]: the EC50 in test [1] was 140 nM. The same molecule gave an IC50 in test [2] of 6.9 nM.
On the same counts, the results for `Cc1cc(COc2ccc(Cl)c3c2[C@@H](CN2CCCC2=O)N(C(=O)[C@@H]2CCCC[C@@H]2C(=O)O)CC3)ns1` [Example 70, (1S,2R)-2-((S)-5-Chloro-8-((5-methylisothiazol-3-yl)methoxy)-1-((2-oxopyrrolidin-1-yl)methyl)-1,2,3,4-tetrahydroisoquinoline-2-carbonyl) cyclohexane-1-carboxylic acid] are 55 nM and 5.9 nM.
The like results for `O=C(O)[C@H]1CCCC[C@H]1C(=O)N1CCc2c(Cl)ccc(OCc3ccsn3)c2[C@H]1CN1CCCC1=O` [Example 71, (1S,2R)-2-((S)-5-Chloro-8-isothiazol-3-ylmethoxy)-1-((2-oxopyrrolidin-1-ylmethyl)-1,2,3,4-tetrahydroisoquinoline-2-carbonyl) cyclohexane-1-carboxylic acid] were, in that order, 78 nM and 6.5 nM.
Turning to `CC(C)n1cc(COc2ccc(Br)c3c2[C@@H](CN2C[C@H](C)CC2=O)N(C(=O)[C@@H]2CCCC[C@@H]2C(=O)O)CC3)nn1` [Example 75, (1S,2R)-2-((S)-5-Bromo-8-((1-isopropyl-1H-1,2,3-triazol-4-yl)methoxy)-1-(((R)-4-methyl-2-oxopyrrolidin-1-yl)methyl)-1,2,3,4-tetrahydroisoquinoline-2-carbonyl) cyclohexane-1-carboxylic acid], the half-maximal effective concentration (EC50) in test [1] amounted to 8.3 nM. Also, the IC50 in test [2] is 6.5 nM.
For the molecule `CC(C)n1cc(COc2ccc(Br)c3c2[C@@H](CN2CC4(CC4)CC2=O)N(C(=O)[C@@H]2CCCC[C@@H]2C(=O)O)CC3)nn1` [Example 76, (1S,2R)-2-((S)-5-bromo-8-((1-isopropyl-1H-1,2,3-triazol-4-yl)methoxy)-1-((6-oxo-5-azaspiro[2.4]heptan-5-yl)methyl)-1,2,3,4-tetrahydroisoquinoline-2-carbonyl) cyclohexane-1-carboxylic acid], the concentration for a half-maximal effect (EC50) in test [1] was determined as 2.5 nM. Further, in test [2], 6.7 nM corresponded to half-maximal inhibition (IC50).
Regarding `CC(C)n1cc(COc2ccc(Br)c3c2[C@@H](CN2C[C@@H](C)CC2=O)N(C(=O)[C@@H]2CCCC[C@@H]2C(=O)O)CC3)nn1` [Example 77, (1S,2R)-2-((S)-5-Bromo-8-((1-isopropyl-1H-1,2,3-triazol-4-yl)methoxy)-1-(((S)-4-methyl-2-oxopyrrolidin-1-yl)methyl)-1,2,3,4-tetrahydroisoquinoline-2-carbonyl) cyclohexane-1-carboxylic acid], the concentration for a half-maximal effect (EC50) in test [1] came out at 6.7 nM. 7.8 nM corresponded to half-maximal inhibition in test [2] (IC50).
The like results for `O=C(O)[C@H]1CCCC[C@H]1C(=O)N1CCc2c(Cl)ccc(OCc3cccnc3)c2[C@H]1CN1CCCC1=O` [Example 78, (1S,2R)-2-((S)-5-Chloro-1-((2-oxopyrrolidin-1-yl)methyl)-8-(pyridin-3-ylmethoxy)-1,2,3,4-tetrahydroisoquinoline-2-carbonyl) cyclohexane-1-carboxylic acid] were, in that order, 57 nM and 7.8 nM.
